Source: US20220226299A1 (NIPPON CHEMIPHAR CO., LTD., priority 2019, published 2022)

What follows are molecules tested against T1, human Cav3.2 channels (Homo sapiens, UniProt O95180) (assay: T-type calcium blocking action: intracellular calcium (Fluo-4 AM fluorescence) in HEK293 cells steadily expressing human Cav3.2 channels). Details: HEK293 cells expressing human Cav3.2; KCl-stimulated calcium influx, Fluo-4 fluorescence; Tables 1 to 3.
T1 construct: human Cav3.2 channel ORF (Open Reading Frame) gene; expressed in transfected cells; host or cells: HEK293 cells (ATCC No. CRL-1573), pcDNA3.1(+) plasmid
Format: cell-based
Outline: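 Fluo-4 AM-loaded stable HEK293 cells were preincubated 15 min at RT with compound (0.1% DMSO final) in choline-based buffer (pH 7.3). Gramicidin was added, then KCl-induced calcium influx was read at 485/510 nm for 10 s. Percent block came from peak rise over baseline, and IC50 from log-concentration plots.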

T1 sequence (O95180 whole entry): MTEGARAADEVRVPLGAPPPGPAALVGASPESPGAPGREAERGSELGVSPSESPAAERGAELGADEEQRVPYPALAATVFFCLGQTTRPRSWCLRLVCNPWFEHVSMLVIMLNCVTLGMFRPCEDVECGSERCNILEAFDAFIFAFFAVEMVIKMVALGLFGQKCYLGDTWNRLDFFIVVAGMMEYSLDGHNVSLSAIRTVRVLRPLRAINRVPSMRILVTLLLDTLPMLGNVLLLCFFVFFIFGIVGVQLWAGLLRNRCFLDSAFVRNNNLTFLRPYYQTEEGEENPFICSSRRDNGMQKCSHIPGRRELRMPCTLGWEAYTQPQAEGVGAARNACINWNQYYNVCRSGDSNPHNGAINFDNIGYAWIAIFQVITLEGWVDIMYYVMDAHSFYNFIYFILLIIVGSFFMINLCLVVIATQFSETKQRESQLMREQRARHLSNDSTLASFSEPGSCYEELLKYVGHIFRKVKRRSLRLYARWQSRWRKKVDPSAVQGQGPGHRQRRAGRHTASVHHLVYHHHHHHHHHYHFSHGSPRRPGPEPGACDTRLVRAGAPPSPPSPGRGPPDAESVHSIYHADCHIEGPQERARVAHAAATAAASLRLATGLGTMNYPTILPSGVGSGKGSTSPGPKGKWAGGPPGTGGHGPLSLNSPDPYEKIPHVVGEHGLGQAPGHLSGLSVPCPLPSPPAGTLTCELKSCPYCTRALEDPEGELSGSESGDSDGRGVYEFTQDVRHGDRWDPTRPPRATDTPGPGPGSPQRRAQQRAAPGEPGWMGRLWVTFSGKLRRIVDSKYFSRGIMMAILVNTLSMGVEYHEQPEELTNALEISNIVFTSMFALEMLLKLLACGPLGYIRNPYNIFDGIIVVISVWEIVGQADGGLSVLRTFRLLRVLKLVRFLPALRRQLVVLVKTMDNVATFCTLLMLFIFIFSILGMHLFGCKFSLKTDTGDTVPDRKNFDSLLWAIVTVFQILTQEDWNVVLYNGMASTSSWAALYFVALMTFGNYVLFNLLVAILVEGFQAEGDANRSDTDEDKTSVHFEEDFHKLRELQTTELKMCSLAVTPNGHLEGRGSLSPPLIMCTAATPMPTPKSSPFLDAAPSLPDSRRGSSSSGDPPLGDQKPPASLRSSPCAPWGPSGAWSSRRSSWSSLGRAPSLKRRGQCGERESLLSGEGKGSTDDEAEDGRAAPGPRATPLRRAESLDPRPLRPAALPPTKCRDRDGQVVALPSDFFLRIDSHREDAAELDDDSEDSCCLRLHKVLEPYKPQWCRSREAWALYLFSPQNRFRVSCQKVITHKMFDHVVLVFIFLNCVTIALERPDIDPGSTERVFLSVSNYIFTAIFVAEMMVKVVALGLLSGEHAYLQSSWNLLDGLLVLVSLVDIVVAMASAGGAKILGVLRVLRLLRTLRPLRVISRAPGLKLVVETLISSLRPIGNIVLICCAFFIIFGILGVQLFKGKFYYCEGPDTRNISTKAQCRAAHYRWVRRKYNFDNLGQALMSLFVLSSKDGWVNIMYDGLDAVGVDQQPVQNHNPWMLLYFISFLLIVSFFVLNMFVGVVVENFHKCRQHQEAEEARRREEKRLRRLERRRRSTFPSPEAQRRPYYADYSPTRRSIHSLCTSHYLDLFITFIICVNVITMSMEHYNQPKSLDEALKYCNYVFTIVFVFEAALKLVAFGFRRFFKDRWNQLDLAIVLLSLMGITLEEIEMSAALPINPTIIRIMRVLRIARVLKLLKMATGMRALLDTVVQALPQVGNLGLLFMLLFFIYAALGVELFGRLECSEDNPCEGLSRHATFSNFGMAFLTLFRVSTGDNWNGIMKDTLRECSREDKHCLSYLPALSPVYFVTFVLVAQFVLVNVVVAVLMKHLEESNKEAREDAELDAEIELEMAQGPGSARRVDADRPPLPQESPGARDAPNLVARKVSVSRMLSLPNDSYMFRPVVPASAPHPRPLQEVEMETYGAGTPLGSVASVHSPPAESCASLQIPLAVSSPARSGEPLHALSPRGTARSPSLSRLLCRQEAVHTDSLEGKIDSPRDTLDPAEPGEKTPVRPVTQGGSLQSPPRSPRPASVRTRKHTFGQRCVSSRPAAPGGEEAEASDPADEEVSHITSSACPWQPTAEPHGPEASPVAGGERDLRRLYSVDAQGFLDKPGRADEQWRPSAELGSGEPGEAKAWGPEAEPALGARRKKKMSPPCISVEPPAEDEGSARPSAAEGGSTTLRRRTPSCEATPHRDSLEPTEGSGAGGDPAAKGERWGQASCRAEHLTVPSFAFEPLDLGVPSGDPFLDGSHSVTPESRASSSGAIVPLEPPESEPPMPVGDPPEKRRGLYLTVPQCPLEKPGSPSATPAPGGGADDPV

| SMILES | IC50 [nM] |
| --- | --- |
| Cn1ncc2cc(CC(=O)N[C@@H]3CCN(c4ccc(C(F)(F)F)nc4)C3)ccc21 [Example 144, (R)-2-(1-methyl-1H-indazol-5-yl)-N-(1-(6-(trifluoromethyl)pyridin-3-yl)pyrrolidin-3-yl)acetamide] | 22 |
| O=C(Cc1ccc(C(F)(F)F)cc1)NC1(C(F)(F)F)CCN(c2cncc(C(F)(F)F)c2)C1 (stereo not drawn) [Example 162, N-(3-(trifluoromethyl)-1-(5-(trifluoromethyl)pyridin-3-yl)pyrrolidin-3-yl)-2-(4-(trifluoromethyl)phenyl)acetamide] | 560 |
| O=C(Cc1ccc2[nH]nnc2c1)N[C@@H]1CCN(c2cncc(C(F)(F)F)c2)C1 [Example 163, (R)-2-(1H-benzo[d][1,2,3]triazol-5-yl)-N-(1-(5-(trifluoromethyl)pyridin-3-yl)pyrrolidin-3-yl)acetamide] | 1400 |
| O=C(Cc1ccc2[nH]nnc2c1)N[C@@H]1CCN(c2ccc(C(F)(F)F)nc2)C1 [Example 164, (R)-2-(1H-benzo[d][1,2,3]triazol-5-yl)-N-(1-(6-(trifluoromethyl)pyridin-3-yl)pyrrolidin-3-yl)acetamide] | 2900 |
| Cn1nnc2cc(CC(=O)N[C@@H]3CCN(c4cncc(C(F)(F)F)c4)C3)ccc21 [Example 167, (R)-2-(1-methyl-1H-benzo[d][1,2,3]triazol-5-yl)-N-(1-(5-(trifluoromethyl)pyridin-3-yl)pyrrolidin-3-yl)acetamide] | 160 |
| Cn1nnc2cc(CC(=O)N[C@@H]3CCN(c4ccc(C(F)(F)F)nc4)C3)ccc21 [Example 168, (R)-2-(1-methyl-1H-benzo[d][1,2,3]triazol-5-yl)-N-(1-(6-(trifluoromethyl)pyridin-3-yl)pyrrolidin-3-yl)acetamide] | 170 |
| O=C(Cc1ccc(C2CC2)cc1)NC1CN(c2ccc(F)c(C(F)(F)F)c2)C1 [Example 170, 2-(4-cyclopropylphenyl)-N-(1-(4-fluoro-3-(trifluoromethyl)phenyl)azetidin-3-yl)acetamide] | 880 |
| O=C(Cc1ccc(Br)cc1)N[C@@H]1CCN(c2cncc(C(F)(F)F)c2)C1 [Example 171, (R)-2-(4-bromophenyl)-N-(1-(5-(trifluoromethyl)pyridin-3-yl)pyrrolidin-3-yl)acetamide] | 110 |
| O=C(Cc1ccc(C2CC2)cc1)N[C@@H]1CCN(c2nc3ccc(F)cc3s2)C1 [Example 172, (R)-2-(4-cyclopropylphenyl)-N-(1-(6-fluorobenzo[d]thiazol-2-yl)pyrrolidin-3-yl)acetamide] | 550 |
| O=C(Cc1ccc(C2CC2)cc1)N[C@@H]1CCN(c2ncc(Br)s2)C1 [Example 173, (R)—N-(1-(5-bromothiazol-2-yl)pyrrolidin-3-yl)-2-(4-cyclopropylphenyl)acetamide] | 1100 |
| O=C(Cc1ccc(C2CC2)cc1)N[C@@H]1CCN(c2ccc(F)c(C(F)(F)F)c2)C1 [Example 174, (R)-2-(4-cyclopropylphenyl)-N-(1-(4-fluoro-3-(trifluoromethyl)phenyl)pyrrolidin-3-yl)acetamide] | 200 |
| COc1cccc(N2CC[C@@H](NC(=O)Cc3ccc(C4CC4)cc3)C2)c1 [Example 175, (R)-2-(4-cyclopropylphenyl)-N-(1-(3-methoxyphenyl)pyrrolidin-3-yl)acetamide] | 490 |
| O=C(Cc1ccc(N2CCC(F)(F)C2)cc1)N[C@@H]1CCN(c2cncc(C(F)(F)F)c2)C1 [Example 176, (R)-2-(4-(3,3-difluoropyrrolidin-1-yl)phenyl)-N-(1-(5-(trifluoromethyl)pyridin-3-yl)pyrrolidin-3-yl)acetamide] | 7.3 |
| CCOC(=O)C(C)(C)Oc1cccc(N2CC[C@@H](NC(=O)Cc3ccc(C4CC4)cc3)C2)c1 [Example 177, Ethyl (R)-2-(3-(3-(2-(4-cyclopropylphenyl)acetamido)pyrrolidin-1-yl)phenoxy)-2-methylpropanoate] | 300 |
| O=C(Cc1ccc(C2CC2)cc1)N[C@@H]1CCN(c2cccc(O)c2)C1 [Example 178, (R)-2-(4-cyclopropylphenyl)-N-(1-(3-hydroxyphenyl)pyrrolidin-3-yl)acetamide] | 590 |
| O=C(Cc1ccc(C2CC2)cc1)N[C@@H]1CCN(c2cccc(C(F)(F)F)n2)C1 [Example 179, (R)-2-(4-cyclopropylphenyl)-N-(1-(6-(trifluoromethyl)pyridin-2-yl)pyrrolidin-3-yl)acetamide] | 240 |

Results, then the molecule that gave them:

| IC50 [nM] | SMILES |
| --- | --- |
| 2100 | COc1cc(OC)nc(N2CC[C@@H](NC(=O)Cc3ccc(C4CC4)cc3)C2)n1 [Example 180, (R)-2-(4-cyclopropylphenyl)-N-(1-(4,6-dimethoxypyrimidin-2-yl)pyrrolidin-3-yl)acetamide] |
| 25 | O=C(Cc1ccc(N2CCOCC2)cc1)N[C@@H]1CCN(c2cncc(C(F)(F)F)c2)C1 [Example 181, (R)-2-(4-morpholinophenyl)-N-(1-(5-(trifluoromethyl)pyridin-3-yl)pyrrolidin-3-yl)acetamide] |
| 720 | O=C(Cc1ccc(C2CC2)cc1)N[C@@H]1CCN(c2cc(C(F)(F)F)ccn2)C1 [Example 182, (R)-2-(4-cyclopropylphenyl)-N-(1-(4-(trifluoromethyl)pyridin-2-yl)pyrrolidin-3-yl)acetamide] |
| 200 | O=C(Cc1ccc(C(F)(F)F)cc1)N[C@@H]1CCN(c2ccc(C(F)(F)F)nc2)C1 [Example 183, (R)-2-(4-(trifluoromethyl)phenyl)-N-(1-(6-(trifluoromethyl)pyridin-3-yl)pyrrolidin-3-yl)acetamide] |
| 3000 | O=C(Cc1ccc(C(F)(F)F)cc1)N[C@@H]1CCN(c2ccc(F)c(C(F)(F)F)c2)C1 [Example 184, (R)—N-(1-(4-fluoro-3-(trifluoromethyl)phenyl)pyrrolidin-3-yl)-2-(4-(trifluoromethyl)phenyl)acetamide] |
| 1400 | CC(C(=O)N[C@@H]1CCN(c2ccc(C(F)(F)F)nc2)C1)c1ccc(C(F)(F)F)cc1 (stereo partly drawn) [Example 185, 2-(4-(Trifluoromethyl)phenyl)-N—((R)-1-(6-(trifluoromethyl)pyridin-3-yl)pyrrolidin-3-yl)propanamide] |
| 510 | O=C(Cc1ccc2cc[nH]c2c1)N[C@@H]1CCN(c2nc(C(F)(F)F)cs2)C1 [Example 187, (R)-2-(1H-indol-6-yl)-N-(1-(4-(trifluoromethyl)thiazol-2-yl)pyrrolidin-3-yl)acetamide] |

The molecules below were run against T2, Cav3.1 channel (Homo sapiens, UniProt O43497) (assay: Cav3.1 channel blocking action, as the Cav3.2 test but with the Cav3.1 channel ORF gene and 1.0 mM CaCl2 in the buffers). Details: Cav3.1 channel ORF gene; CaCl2 1.0 mM in buffer A and buffer B.
T2 construct: replaced with a Cav3.1 channel ORF gene; expressed in transfected cells
Format: cell-based

T2 sequence (O43497 whole entry): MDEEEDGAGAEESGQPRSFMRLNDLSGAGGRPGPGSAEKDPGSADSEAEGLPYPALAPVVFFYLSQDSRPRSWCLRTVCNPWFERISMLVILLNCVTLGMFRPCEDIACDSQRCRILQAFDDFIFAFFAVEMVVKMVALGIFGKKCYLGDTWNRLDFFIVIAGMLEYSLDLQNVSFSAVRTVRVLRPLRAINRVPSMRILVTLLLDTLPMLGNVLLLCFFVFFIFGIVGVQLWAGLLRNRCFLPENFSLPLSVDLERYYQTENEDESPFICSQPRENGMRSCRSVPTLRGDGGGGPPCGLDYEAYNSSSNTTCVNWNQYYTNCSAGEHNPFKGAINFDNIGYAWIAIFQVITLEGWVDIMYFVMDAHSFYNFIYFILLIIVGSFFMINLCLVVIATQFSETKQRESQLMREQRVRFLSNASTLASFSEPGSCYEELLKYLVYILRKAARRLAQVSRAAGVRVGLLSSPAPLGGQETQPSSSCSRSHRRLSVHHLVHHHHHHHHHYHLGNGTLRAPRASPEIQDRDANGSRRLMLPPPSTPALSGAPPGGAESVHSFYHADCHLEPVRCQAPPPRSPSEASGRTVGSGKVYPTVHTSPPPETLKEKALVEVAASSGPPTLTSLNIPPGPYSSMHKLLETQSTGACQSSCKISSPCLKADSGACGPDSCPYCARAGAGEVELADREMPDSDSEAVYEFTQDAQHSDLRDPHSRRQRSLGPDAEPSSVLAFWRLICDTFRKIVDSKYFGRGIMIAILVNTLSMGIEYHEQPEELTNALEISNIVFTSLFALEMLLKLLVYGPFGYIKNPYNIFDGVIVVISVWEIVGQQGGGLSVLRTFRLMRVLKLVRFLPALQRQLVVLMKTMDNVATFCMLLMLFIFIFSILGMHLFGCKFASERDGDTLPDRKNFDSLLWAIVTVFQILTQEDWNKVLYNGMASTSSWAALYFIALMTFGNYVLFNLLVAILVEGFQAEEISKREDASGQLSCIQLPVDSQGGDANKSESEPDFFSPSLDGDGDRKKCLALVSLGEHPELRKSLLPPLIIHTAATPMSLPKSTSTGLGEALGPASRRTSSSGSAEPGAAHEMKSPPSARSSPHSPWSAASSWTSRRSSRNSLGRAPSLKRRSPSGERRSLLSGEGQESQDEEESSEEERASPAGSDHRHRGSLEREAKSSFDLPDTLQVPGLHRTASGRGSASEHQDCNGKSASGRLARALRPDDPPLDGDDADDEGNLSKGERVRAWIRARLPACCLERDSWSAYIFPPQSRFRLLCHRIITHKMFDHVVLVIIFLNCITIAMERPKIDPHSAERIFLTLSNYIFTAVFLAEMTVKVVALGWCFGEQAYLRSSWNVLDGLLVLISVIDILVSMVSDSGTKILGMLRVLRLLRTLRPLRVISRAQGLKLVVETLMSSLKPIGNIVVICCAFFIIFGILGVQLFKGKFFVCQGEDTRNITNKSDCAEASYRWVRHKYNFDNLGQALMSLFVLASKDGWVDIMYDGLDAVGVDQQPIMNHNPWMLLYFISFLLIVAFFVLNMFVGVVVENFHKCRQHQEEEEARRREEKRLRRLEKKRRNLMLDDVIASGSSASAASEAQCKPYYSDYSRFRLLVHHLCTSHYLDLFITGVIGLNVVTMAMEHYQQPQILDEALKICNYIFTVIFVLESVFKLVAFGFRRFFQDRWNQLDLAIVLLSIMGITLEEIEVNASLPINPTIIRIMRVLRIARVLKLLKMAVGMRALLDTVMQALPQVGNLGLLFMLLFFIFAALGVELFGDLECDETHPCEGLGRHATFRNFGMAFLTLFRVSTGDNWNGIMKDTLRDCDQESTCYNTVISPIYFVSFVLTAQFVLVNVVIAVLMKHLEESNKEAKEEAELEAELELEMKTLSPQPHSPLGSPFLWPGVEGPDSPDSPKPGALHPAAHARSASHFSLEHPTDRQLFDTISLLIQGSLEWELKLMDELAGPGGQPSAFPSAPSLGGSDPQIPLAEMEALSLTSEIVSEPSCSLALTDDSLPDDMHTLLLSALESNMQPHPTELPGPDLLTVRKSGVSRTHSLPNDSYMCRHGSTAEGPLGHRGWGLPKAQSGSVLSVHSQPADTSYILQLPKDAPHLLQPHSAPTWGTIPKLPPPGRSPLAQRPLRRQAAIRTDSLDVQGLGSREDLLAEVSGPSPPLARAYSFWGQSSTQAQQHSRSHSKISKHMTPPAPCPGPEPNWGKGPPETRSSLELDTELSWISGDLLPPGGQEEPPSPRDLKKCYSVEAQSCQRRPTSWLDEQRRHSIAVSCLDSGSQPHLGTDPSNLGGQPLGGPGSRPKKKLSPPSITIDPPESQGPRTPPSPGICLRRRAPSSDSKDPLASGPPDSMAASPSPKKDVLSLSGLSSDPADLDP

| IC50 [nM] | SMILES |
| --- | --- |
| 470 | Cn1ncc2cc(CC(=O)N[C@@H]3CCN(c4ccc(C(F)(F)F)nc4)C3)ccc21 [Example 144, (R)-2-(1-methyl-1H-indazol-5-yl)-N-(1-(6-(trifluoromethyl)pyridin-3-yl)pyrrolidin-3-yl)acetamide] |
